Test [1] has as its target TDP-43 peptide (amino acids 307-319) (Homo sapiens, UniProt Q13148). Put plainly: TDP-43 thioflavin T assay. It is filed as biochemical. The following applies: ThT RFU at 15 hours; 100% = TDP-43 + DMSO. As to the method:
The effect of compounds on fibril formation by TDP-43 peptide (amino acids 307-319) was screened using a thioflavin T (ThT) fluorescence assay in a 96-well plate format. The monomeric form of TDP-43 307-319 was stored in HFIP at −20° C. in 32 μL vials and then thawed on ice. After thawing a stock aliquot on ice, 16 μL of HFIP and 432 μL 100 mM ammonium acetate was added. This mix was pipetted three times. Three such prepared aliquots were combined to create a master mix. 400 μM of ThT stock was prepared by dissolving 31.8 mg ThT in 10 mL Milli-Q water to make […] stock. The 10 mM ThT stock was then diluted to 400 μM with Milli-Q water and stored at −20° C. until use. 20 μL aliquots of compounds were used as initial starting material. 98 μL of master mix was then added to each well of 96-well plate, and then 2 μL of compounds was added to each well testing a compound. The plate was spun at 4700×rpm to remove bubbles at 4° C., and then the plate measurements were collected. ThT fluorescence was measured through the bottom of the plate using 440- and 480-nm excitation and emission filters for 15 hours at 0.5-hour intervals. Each well was scanned at 5 points with a 1.25 mm distance between points. The relative fluorescence unit (RFU) at 15 hours was used to rank the percent of aggregation for all tested compounds.

In a further test the target is T1, alpha-synuclein (Homo sapiens, UniProt P37840).
T1 construct: purchased Proteos RP-003
Description: Alpha-synuclein thioflavin T assay. Particulars: 250 μM compound on pre-formed aggregates of 50 μM alpha-synuclein, 24 hours; 100% = alpha synuclein + DMSO. It is filed as biochemical. On the procedure:
Recombinant alpha-synuclein monomeric protein was procured from Proteos (catalog no. RP-003, 10 mg/ml or 700 μM concentration). Prior to aggregation, the protein was centrifuged at 10,000 rpm for 5 minutes to remove any pre-existing aggregates. The stock solution was then diluted to 50 μM concentration in filtered 1×PBS and allowed to aggregate with continuous shaking at 1000 rpm on a thermomixer for 96 hours at 37° C. After 96 hours, the ThT fluorescence was checked for the sample to confirm aggregate formation using ThT, a well-known amyloid marker dye. The ThT active aggregates were then used for high-throughput small molecule inhibitor screening. For screening small molecule disaggregators, 10 mM DMSO stock solutions of small molecules were diluted to 250 μM in the reaction mix containing 20 μM ThT and aggregates formed by 50 μM alpha-synuclein. As a positive/vehicle control, 100% DMSO stock was diluted to 2.5% to match the DMSO in the small molecule conditions. ThT fluorescence assay was performed for 24 hours with 3 replicates per sample in a 384 well plate (Corning low volume black/clear flat bottom) on a microplate reader (Molecular Devices SpectraMax iD5 or BioTek Agilent Synergy Neo2) using excitation wavelength of 440 nm and emission wavelength of 490 nm. The temperature was maintained at 37° C. and the plate was continuously shaken throughout the measurement. All data were plotted and analyzed in GraphPad Prism.

For test [2], the target named is T2, TDP-43 cytosolic aggregates (TDP-43-tGFP-U2OS cell line) (Homo sapiens, UniProt Q13148).
T2 construct: expressed in transfected cells; host or cells: U2OS (recombinant, IPTG-inducible TDP-43 expression)
Description: TDP-43 cytoplasmic aggregation assay. The test is classed as cell-based. The following applies: 10 μM compound; TDP-43-tGFP-U2OS cells, sodium arsenite; lower = more potent. On the procedure:
Recombinant TDP-43-tGFP-U2OS cell line was thawed (2×10^6 cells per T75) and was maintained in DMEM-F12 supplemented with 10% FBS at 37° C. in a humidified 5% CO2 atmosphere. Cells were plated in 96-well plates with a density of 10,000 cells (+/−2000 cells) per well. Cells were incubated with the test compounds and isopropyl β-D-1-thiogalactopyranoside (IPTG) 1 mM to induce TDP43 expression for 24 hours. The assays were carried out in triplicate. Cells were treated with 125-250 μM of sodium arsenite for 120 min and TDP-43 punctae formation was quantified in both cell cytoplasm and cell nucleus, in living cells. The nuclei were stained using Hoechst (0.5 μg/ml) and the fluorescence was measured using a Cell Insight High-Content Bioimager from Thermo Fisher. To detect the Hoechst, the filters used were 380/10 and 460/10 nm for excitation and emission, respectively, and to detect the TDP-43 punctae, the filters were 488/20 and 520/20 nm, respectively. The images were obtained with an objective of 20×. Cell quantification was performed delimitating the region of interest of the nuclei and after quantification the average of each triplicate was performed. For granule quantification the spot detector application from Cell Software delimitated 2 regions of interest, the nuclei and cytosol. This software quantified the average number of granules per nuclei and the average number of granules per cytosol in each well.

The record followed here is patent US20260242340A1, “COMPOUNDS AND METHODS FOR TREATING PROTEIN AGGREGATION DISEASES” (ACELOT, INC., priority 2023, published 2026).

T2 sequence (Q13148 whole entry): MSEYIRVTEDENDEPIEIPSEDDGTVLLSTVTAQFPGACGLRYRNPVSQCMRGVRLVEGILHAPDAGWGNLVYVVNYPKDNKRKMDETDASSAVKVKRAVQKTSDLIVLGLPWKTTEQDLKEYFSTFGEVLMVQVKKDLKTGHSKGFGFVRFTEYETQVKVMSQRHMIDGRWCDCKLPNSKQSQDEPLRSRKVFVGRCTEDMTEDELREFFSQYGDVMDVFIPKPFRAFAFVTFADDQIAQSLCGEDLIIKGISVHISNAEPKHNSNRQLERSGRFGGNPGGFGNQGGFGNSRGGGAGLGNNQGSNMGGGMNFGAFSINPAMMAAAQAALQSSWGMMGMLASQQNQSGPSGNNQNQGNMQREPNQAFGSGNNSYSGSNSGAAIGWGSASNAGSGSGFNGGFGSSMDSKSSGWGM

Take `CC(=O)Nc1ccc2c(c1)CCN(CCc1cccc(Cl)c1)C2` [Compound 1]: in test [1], the “% aggregation TDP-43 ThT at 50 μM TDP-43” value is reported as 77.4%. Moreover, the “% alpha synuclein aggregation as measured on ThT” value on alpha-synuclein is recorded as 77.8%. For the same molecule, the “TDP-43 % cytosolic aggregates at 10 μM” value in test [2] is on record as 34.5%.

In the case of `CC(=O)Nc1ccc2c(c1)CCN(CCc1ccc(F)c(Cl)c1)C2` [Compound 2], the “% aggregation TDP-43 ThT at 50 μM TDP-43” value in test [1] stood at 80.7%. For the same molecule, at alpha-synuclein, the “% alpha synuclein aggregation as measured on ThT” value was 95.6%. Also, the “TDP-43 % cytosolic aggregates at 10 μM” value in test [2] stood at 10.2%.
